{
  "source": "patent US20240317696A1",
  "about": "“ALKYL CARBOXYLIC ACID COMPOUNDS AND APPLICATION THEREOF” (MEDSHINE DISCOVERY INC., priority 2021, published 2024)",
  "key": {"[1]": {"target": "sGC (Homo sapiens (Human), UniProt Q02153)", "sequence (Q02153 whole entry)": "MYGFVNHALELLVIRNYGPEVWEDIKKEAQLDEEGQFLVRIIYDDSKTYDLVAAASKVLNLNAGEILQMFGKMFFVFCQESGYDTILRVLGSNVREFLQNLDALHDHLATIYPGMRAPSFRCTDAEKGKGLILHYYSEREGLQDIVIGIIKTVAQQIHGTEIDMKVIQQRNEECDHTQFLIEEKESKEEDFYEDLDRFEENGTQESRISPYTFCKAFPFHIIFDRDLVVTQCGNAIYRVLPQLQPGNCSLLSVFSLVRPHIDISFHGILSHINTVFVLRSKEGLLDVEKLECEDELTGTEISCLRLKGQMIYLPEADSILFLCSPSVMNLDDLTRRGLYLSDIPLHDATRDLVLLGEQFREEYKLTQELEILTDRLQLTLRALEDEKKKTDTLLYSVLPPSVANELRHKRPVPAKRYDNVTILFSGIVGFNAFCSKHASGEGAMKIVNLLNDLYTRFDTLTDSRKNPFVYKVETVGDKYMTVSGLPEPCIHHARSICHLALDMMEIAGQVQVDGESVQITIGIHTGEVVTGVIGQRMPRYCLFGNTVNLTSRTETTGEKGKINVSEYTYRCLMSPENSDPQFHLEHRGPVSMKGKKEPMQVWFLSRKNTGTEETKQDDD", "sequence (Q02108 whole entry partner)": "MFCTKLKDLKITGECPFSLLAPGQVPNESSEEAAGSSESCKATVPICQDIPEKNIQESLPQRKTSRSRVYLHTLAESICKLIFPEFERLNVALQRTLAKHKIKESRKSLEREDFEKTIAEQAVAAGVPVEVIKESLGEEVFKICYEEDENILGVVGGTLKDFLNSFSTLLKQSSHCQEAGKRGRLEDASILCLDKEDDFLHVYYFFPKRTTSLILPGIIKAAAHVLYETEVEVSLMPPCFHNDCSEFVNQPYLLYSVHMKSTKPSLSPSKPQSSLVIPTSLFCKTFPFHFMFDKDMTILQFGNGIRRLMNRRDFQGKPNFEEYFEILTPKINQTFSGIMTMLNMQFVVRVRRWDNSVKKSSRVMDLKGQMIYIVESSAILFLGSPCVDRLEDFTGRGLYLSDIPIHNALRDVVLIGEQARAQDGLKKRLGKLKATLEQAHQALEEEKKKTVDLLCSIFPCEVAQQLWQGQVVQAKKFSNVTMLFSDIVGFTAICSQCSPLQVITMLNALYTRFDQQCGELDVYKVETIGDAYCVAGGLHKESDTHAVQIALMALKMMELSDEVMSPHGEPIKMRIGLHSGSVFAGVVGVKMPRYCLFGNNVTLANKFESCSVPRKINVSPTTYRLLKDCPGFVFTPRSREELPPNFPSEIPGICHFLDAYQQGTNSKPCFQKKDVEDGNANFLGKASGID", "assay": "cGMP expression test based on LNCap cells (sGC stimulatory activity)", "assay_type": "cell-based", "details": "ODQ present; for MEC: Minimum effective concentration required to stimulate cGMP production in LNCap cells (greater than three times the baseline value); for EC50: cGMP production in LNCap cells", "description": "I. cGMP Expression Test Based on InCap Cells\n(1) The compound was diluted to a concentration of 10 mM using DMSO.\n(2) A serial dilution of the compound was performed, resulting in 10 different concentration levels of each compound. 100 nL of each diluted compound was added to a 96-well plate.\n3) Preparation of LNCap Cells\n(1) LNCap culture medium: RPMI1640 supplemented with 10% fetal bovine serum (FBS) and 1% double antibody\n(9) Assay buffer was added, and the cell concentration was adjusted to 3×10^6/mL.\n4) Preparation and Addition of ODQ Solution\n(1) 10 mM ODQ stock solution was diluted at a ratio of 1:1000 and added to the cell solution.\n(2) After thorough mixing, the solution was added to a microplate at 10 μL per well.\n5) Preparation of cGMP Standard Curve\n(1) 1 mM cGMP stock solution was diluted to 10 μM using assay buffer. 11 concentration gradients were created through 4-fold serial dilutions.\n(2) The diluted cGMP was added to the microplate at 10 μL per well.\n6) Addition of Assay Reagents and Plate Reading\n(1) cGMP-D2 was transferred to a 384-well plate at 5 μL per well. Anti-cGMP cryptate was transferred to a […] at 5 μL per well. Centrifugation was performed at 1500 rpm for 1 minute.\n(2) Incubation was carried out at room temperature for 1 hour.\n(3) The plates were read using envision at 665/615 wavelengths.\n(1) cGMP standard curve: A standard curve was generated using GraphPad Prism, based on the ratio of cGMP concentration to the 665/615 wavelength values.\n(2) Conversion of HTRF (homogeneous time-resolved fluorescence) ratio (665/615) to cGMP concentration: In GraphPad Prism, the HTRF ratio (665/615) was copied to the ratio column of the cGMP standard curve. The analysis “Log inhibitor vs response-variable slope” was run, and the “interpolate” option was selected to convert the HTRF ratio (665/615) into cGMP concentration.\n(3) Compound activation curve: A curve was generated using the “Log agonist vs response-variable slope” analysis method in GraphPad Prism, based on the converted cGMP concentration and compound concentration."}, "[2]": {"system": "hepatocytes", "assay": "In vitro hepatocyte metabolic stability, mouse", "assay_type": "in vitro ADME", "details": "test compound 1 μM, 0.5×10^6 cells/mL", "description": "(§1) 1. Experimental Objective: The Aim of the Study was to Assess the Stability of the Compounds in Hepatocytes of Different Species.\n(§2) A variety of 96-well precipitation plates were prepared and labeled as T0, T15, T30, T60, T90, T0-MC, T90-MC, and blank matrix, respectively. Revival medium and incubation medium were taken in advance and pre-warmed in a 37° C. water bath. Hepatocytes of different species, stored in a liquid nitrogen tank, were taken and immediately immersed in a 37° C. water bath for approximately 90 seconds. Once partially thawed, cells were transferred to centrifuge tubes containing 40 mL of revival medium, and gently inverted to resuspend the cells in the revival medium. At room temperature, cells were centrifuged at 100×g for 5 minutes. The supernatant was discarded, and the hepatocytes were resuspended in an appropriate volume of incubation medium. Viability was calculated using trypan blue staining. 198 μL of hepatocyte suspension (0.51×10^6 cells/mL) was added to pre-warmed incubation plates. For the control group, 198 μL of hepatocyte-free incubation medium was added to T0-MC and […] plates. All plates were pre-incubated for 10 minutes in a 37° C. incubator. […] All samples were mixed well and analyzed using LC/MS/MS methods."}, "[3]": {"system": "hepatocytes", "assay": "In vitro hepatocyte metabolic stability, rat", "assay_type": "in vitro ADME", "details": "test compound 1 μM, 0.5×10^6 cells/mL", "description": "as §1, §2"}, "[4]": {"system": "hepatocytes", "assay": "In vitro hepatocyte metabolic stability, human", "assay_type": "in vitro ADME", "details": "test compound 1 μM, 0.5×10^6 cells/mL", "description": "as §1, §2"}, "[5]": {"assay": "In vivo pharmacokinetic property study in male Sprague Dawley rats", "description": "Experimental objective: The aim of this study was to determine the pharmacokinetic parameters of the compound in male Sprague Dawley rats.\nSprague Dawley rats (male, 200 to 300 g, 7 to 9 weeks old, procured from Shanghai SLAC)\nFor this project, four male Sprague Dawley rats were used. Two rats in one group were administered the compound intravenously at a dosage of 2 mg/kg and a concentration of 0.4 mg/mL. Two rats in another group were administered the compound orally at a dosage of 10 mg/kg and a concentration of 1 mg/mL. Plasma samples were collected 0.083 (intravenous group only), 0.25, 0.5, 1, 2, 4, 6, 8, and 24 hours after administration. The collected samples were then analyzed using LC-MS/MS and data were collected. The collected analytical data were processed using Phoenix WinNonlin 6.3 software to calculate relevant pharmacokinetic parameters."}},
  "data": [
    {"smiles": "COC12CC([C@H](CC(=O)O)c3ccc(Cl)c(NC(=O)[C@H](c4ccc(Cl)cc4)[C@@H](C)C(F)(F)F)c3)(C1)C2", "note": "[WX014]", "values": [
      {"measurement": "MEC", "setting": "[1]", "result": 0.42, "unit": "nM"},
      {"measurement": "EC50", "setting": "[1]", "result": 1.65, "unit": "nM"}
    ]},
    {"smiles": "COC12CC(C(CC(=O)O)c3ccc(Cl)c(NC(=O)[C@H](c4ccc(Cl)cc4)[C@@H](C)C(F)(F)F)c3)(C1)C2", "note": "(stereo partly drawn) [WX013]", "values": [
      {"measurement": "MEC", "setting": "[1]", "result": 1.22, "unit": "nM"},
      {"measurement": "EC50", "setting": "[1]", "result": 3.5, "unit": "nM"}
    ]},
    {"smiles": "C[C@H]([C@H](C(=O)Nc1cc(C(CC(=O)O)C23CC(F)(C2)C3)ccc1Cl)c1ccc(Cl)cc1)C(F)(F)F", "note": "(stereo partly drawn) [WX004]", "values": [
      {"measurement": "MEC", "setting": "[1]", "result": 0.61, "unit": "nM"},
      {"measurement": "EC50", "setting": "[1]", "result": 3.74, "unit": "nM"}
    ]},
    {"smiles": "C[C@H]([C@H](C(=O)Nc1cc([C@@H](CC(=O)O)C23CC(F)(C2)C3)ccc1Cl)c1ccc(Cl)cc1)C(F)(F)F", "note": "[WX005]", "values": [
      {"measurement": "MEC", "setting": "[1]", "result": 0.27, "unit": "nM"},
      {"measurement": "EC50", "setting": "[1]", "result": 2.06, "unit": "nM"},
      {"measurement": "CLint (liver)", "setting": "[2]", "result": 610.4, "unit": "mL/min/kg"},
      {"measurement": "T1/2", "setting": "[2]", "result": 0.45, "unit": "h"},
      {"measurement": "CLint (liver)", "setting": "[3]", "result": 154.7, "unit": "mL/min/kg"},
      {"measurement": "T1/2", "setting": "[3]", "result": 0.698, "unit": "h"},
      {"measurement": "CLint (liver)", "setting": "[4]", "result": 49.7, "unit": "mL/min/kg"},
      {"measurement": "T1/2", "setting": "[4]", "result": 1.29, "unit": "h"},
      {"measurement": "AUC", "setting": "[5]; iv 2 mg/kg", "result": 11.228, "unit": "µM·h"},
      {"measurement": "Cl", "setting": "[5]; iv 2 mg/kg", "result": 5.47, "unit": "mL/min/kg"},
      {"measurement": "T1/2", "setting": "[5]; iv 2 mg/kg", "result": 3.83, "unit": "h"},
      {"measurement": "Vdss", "setting": "[5]; iv 2 mg/kg", "result": 1.27, "unit": "L/kg"},
      {"measurement": "AUC", "setting": "[5]; po 10 mg/kg", "result": 17.423, "unit": "µM·h"},
      {"measurement": "T1/2", "setting": "[5]; po 10 mg/kg", "result": 6.92, "unit": "h"},
      {"measurement": "% F", "setting": "[5]; po 10 mg/kg vs iv 2 mg/kg", "result": 42.1, "unit": "%"}
    ]},
    {"smiles": "C[C@H]([C@H](C(=O)Nc1cc([C@@H](CC(=O)O)C2CCCC2)ccc1Cl)c1ccc(Cl)cc1)C(F)(F)F", "note": "[WX002]", "values": [
      {"measurement": "MEC", "setting": "[1]", "result": 2.20, "unit": "nM"},
      {"measurement": "EC50", "setting": "[1]", "result": 1.76, "unit": "nM"}
    ]},
    {"smiles": "C[C@H]([C@H](C(=O)Nc1cc([C@@H](CC(=O)O)[C@H]2CCCO2)ccc1Cl)c1ccc(Cl)cc1)C(F)(F)F", "note": "[WX016]", "values": [
      {"measurement": "MEC", "setting": "[1]", "result": 27.85, "unit": "nM"},
      {"measurement": "EC50", "setting": "[1]", "result": 145, "unit": "nM"}
    ]},
    {"smiles": "C[C@H]([C@H](C(=O)Nc1cc(C(CC(=O)O)C23CC(F)(C2)C3)ccc1F)c1ccc(Cl)cc1)C(F)(F)F", "note": "(stereo partly drawn) [WX007]", "values": [
      {"measurement": "MEC", "setting": "[1]", "result": 0.65, "unit": "nM"},
      {"measurement": "EC50", "setting": "[1]", "result": 3.28, "unit": "nM"}
    ]},
    {"smiles": "Cc1ccc(C(CC(=O)O)C23CC(F)(C2)C3)cc1NC(=O)C(c1ccc(Cl)cc1)[C@@H](C)C(F)(F)F", "note": "(stereo partly drawn) [WX010]", "values": [
      {"measurement": "MEC", "setting": "[1]", "result": 1.76, "unit": "nM"},
      {"measurement": "EC50", "setting": "[1]", "result": 2.16, "unit": "nM"}
    ]},
    {"smiles": "Cc1ccc([C@@H](CC(=O)O)C23CC(F)(C2)C3)cc1NC(=O)[C@H](c1ccc(Cl)cc1)[C@@H](C)C(F)(F)F", "note": "[WX011]", "values": [
      {"measurement": "MEC", "setting": "[1]", "result": 1.39, "unit": "nM"},
      {"measurement": "EC50", "setting": "[1]", "result": 1.75, "unit": "nM"}
    ]},
    {"smiles": "C[C@H]([C@H](C(=O)Nc1cc(C(CC(=O)O)C2CCCC2)ccc1Cl)c1ccc(Cl)cc1)C(F)(F)F", "note": "(stereo partly drawn) [WX001]", "values": [
      {"measurement": "MEC", "setting": "[1]", "result": 4.20, "unit": "nM"},
      {"measurement": "EC50", "setting": "[1]", "result": 6.62, "unit": "nM"}
    ]}
  ]
}
